In the NIST ThermoML archive (doi:10.1016/j.fluid.2015.10.027):
Numbers after ± are expanded uncertainties.

Conditions: 101.33 kPa, Liquid, Vibrating tube method

mass density (300.83 K): 816.664 ± 0.24 kg/m3
mass density (304.05 K): 813.975 ± 0.24 kg/m3
mass density (306.72 K): 811.615 ± 0.24 kg/m3
mass density (309.8 K): 809.031 ± 0.24 kg/m3
mass density (313.97 K): 805.478 ± 0.24 kg/m3
SMILES: CC1CCCC(C)N1 (stereo not given) [2,6-dimethylpiperidine]
